Experimental data: patent US6372493B1, “Hormone-secreting cells maintained in long-term culture” (Pacific Biomedical Research, Inc. [Cell Mart, Inc.], priority 1991, dated 2002)

Tests used:
[1] = tested on: pancreas cells in long-term culture; experiment: Glucose-stimulated insulin secretion, pancreas cells generation 47, frozen/thawed or not (Example 17); format: cell-based, human
Procedure: The pancreas cell cultures described in Example 16 were passaged approximately every 3-5 days through generation 47. Passaging was done by placing 0.5-1.0 ml of cell suspension into 10 ml fresh medium in a flask. Each flask was flooded with medical blood gas mixture (supra), sealed, and maintained in an incubator at 37° C. Typically, each flask was flooded with fresh gas every other day. At passage 47, the cells had been in continuous culture for 9.5 months.
A portion of the pancreas cells at generation 47 were frozen according to the method described in Example 15 using cryopreservative A. The cells were stored frozen for 1 day, after which they were thawed according to the method described in Example 15.
The thawed cells and cells from generation 47 which had not been frozen were placed in DMSS medium and centrifuged at 1070 rpm for 5 minutes. The pellets were washed and resuspended in 30 ml of Medium PDM (Dulbecco's salt solution, phosphate buffered, with MgSO4 (no MgCl2), plus 2% BSA Fraction V), final osmolality adjusted to 272 mOsm) at 37°.
The cells were incubated 30 minutes at 37°, then centrifuged and resuspended as above. Cell count and viability were determined by Trypan blue exclusion.
The cells were then centrifuged and resuspended in a base medium consisting of 3 parts Medium PDM (supra) and 1 part DMSS, as defined in Example 6 above.

[2] = tested on: Human pancreas cells at passage generation 47; experiment: Effect of amino acids on glucose stimulated insulin secretion (Example 20); format: cell-based; conditions: 90 minutes
Procedure: Human pancreas cells at passage generation 47, were prepared for the experiment as described in Example 17 above. The cells were incubated in 6 parts PDM plus 1 part DMSS medium at a concentration of 10^5 cells/ml, at various concentrations of glucose. Alanine (10 mM) or arginine(20 mM) were added, and the cells were incubated for 90 minutes, at which time samples were collected for assay of insulin content.

[3] = tested on: daughter-islet cells from human pancreas whole islets; experiment: Indirect immunofluorescence for insulin after glucose stimulation of daughter-islets (Example 22); format: cell-based; conditions: 12 mM glucose 3 hours
Procedure: The first assessment was made after three months in culture at the eighth passage generation and the second assessment was made after the sixteenth passage generation and eight months in continuous culture. On the average the daughter-islet cells were passed every 10-14 days. To test the response of the cells to glucose stimulation, the cultures were given a glucose poor basal medium. The basal medium as set forth in Formula VI below was a RPMI-1640 derivative containing 2 mM glucose. The cells remained in glucose poor medium for a period of 4 hours. The cells were first washed five times for 10 minutes each in the Formula VI medium prior to a 3 hour final incubation in the same basal medium. Subsequently the cultures were placed in the same medium, except that its total glucose concentration was 12 mM (instead of 2 mM glucose) for 3 hours and then prepared for indirect immunofluorescence to detect the presence of insulin.
The materials and partial protocol used in this example were as follows:
1. Primary antibody: Guinea pig monoclonal anti-insulin (human) [Peninsula Laboratories, Inc. IFK-7303G] working dilution used was 1:200.
2. Secondary antibody: Rabbit anti-guinea pig IgG (whole molecule) affinity isolated—TRITC conjugate (Sigma T-7153).
3. Negative control: 1 ml of the primary antiserum of the Guinea pig monoclonal anti-insulin (human) was added to 50 μgm of synthetic human insulin (Peninsula Laboratories, Inc.).
4. Nuclear counterstain: Hoechst 33258 (Sigma Chemical Co.), 0.1% was used.
The procedures followed for fixing the cells and the amount of primary and secondary antibodies used are given in detail in the description of procedures for Example 23. The control experiment was exposure only to the glucose poor basal medium.

[4] = tested on: cultured pancreatic islet cells (daughter-islets); experiment: Immunofluorescence for insulin after BUDR labelling and glucose stimulation (Example 23); format: cell-based, human; conditions: 12 mM glucose 6 hours
Procedure: The tests were done on the same long term cultured daughter-islets described in Example 22, after 3 months of culture (8 passage generations) and after 8 months of cell culture (16 passage generations). Cultures of the daughter-islets were exposed to 30 μgm/ml BUDR for 5 days. The cultures were then placed in normal culture medium (OCZEM-M) for another 5 days. Cultures were then given the same glucose poor basal medium described in Formula VI for 4 hours. Subsequently medium containing 12 mM glucose, described in Example 22, was provided for 6 hours. Cells were immediately fixed and prepared for immunofluorescence. A FITC conjugated secondary antibody to detect BUDR incorporation during DNA synthesis and a TRITC conjugated secondary antibody to detect insulin synthesis in response to glucose stimulation were used according to the following protocol.
d. Cell preparation used procedures to swell the nucleus and preferentially fix the chromosomes in order to maximize the ability to detect BUDR incorporation. The procedures are commonly used to prepare human embryonic cells for florescence in situ hybridization (FISH).
9. Primary antibodies were added, 100 ul @ and the slides were incubated in a moist chamber for 18 hours at 20° C.
11. Secondary antibodies were added to EVERY slide (including the negative controls) in very dim light, 100 ul @ and then the slides were incubated in the dark for 60 minutes at room temperature.
16. After 24 hours the preparations were photographed with Kodak Ektar 100 using Zeiss optics and fluorescence filters (No 2 for Hoechst, No 9 for FITC and No 15 for TRITC).

[5] = tested on: human pancreas whole islets; experiment: Insulin secretion of cultured whole islets in response to glucose, RIA (Example 24); format: cell-based; conditions: +10 mM Glucose (Total 12 mM Glucose)
Procedure: The whole islets were isolated and obtained as described in Example 22. Prior to this experiment they had been in culture for 3¾ months in OCZEM-M and were passage generation 11. Insulin secretion was measured by RIA (Diagnostic Products Corporation).
The cultured whole islets were washed in basal medium [RPMI (5×@ 20 minutes) before the experiment. Then individual whole islets were cultured in the basal level medium containing 2 mM glucose described in Example 22 for 3½ hours (1 islet/1 ml). Each individual islet was then transferred to 1 ml of the basal medium containing an additional 10 mM glucose (to yield a total glucose concentration of 12 mM) and cultured for another 3½ hours. A comparison of the resulting amounts of secreted insulin is shown below in Table 16. Each individual islet was placed in a separate culture dish after the experiment so that future tests on insulin secretion could be measured on identified islets.

O=C[C@H](O)[C@@H](O)[C@H](O)[C@H](O)CO [glucose, D(+)glucose]
Insulin secreted ([1]; pg 47, glucose total 1 mM, 1.5 or 3 hours): 92 μIU insulin secreted/ml/10,000 | Insulin secreted ([1]; pg 47, glucose total 2 mM): 100 μIU insulin secreted/ml/10,000 | Insulin secreted ([1]; pg 47, glucose total 6 mM): 111 μIU insulin secreted/ml/10,000 | Insulin secreted ([1]; pg 47, glucose total 11 mM): 117 μIU insulin secreted/ml/10,000 | Insulin secreted ([1]; pg 47, glucose total 16 mM): 129 μIU insulin secreted/ml/10,000 | Insulin secreted ([1]; pg 47, glucose total 21 mM): 116 μIU insulin secreted/ml/10,000 | Insulin secreted ([1]; pg47 frozen/thawed, glucose total 1 mM): 99 μIU insulin secreted/ml/10,000 | Insulin secreted ([1]; pg47 frozen/thawed, glucose total 2 mM): 105 μIU insulin secreted/ml/10,000 | Insulin secreted ([1]; pg47 frozen/thawed, glucose total 6 mM): 114 μIU insulin secreted/ml/10,000 | Insulin secreted ([1]; pg47 frozen/thawed, glucose total 11 mM): 128 μIU insulin secreted/ml/10,000 | Insulin secreted ([1]; pg47 frozen/thawed, glucose total 16 mM): 125 μIU insulin secreted/ml/10,000 | Insulin secreted ([1]; pg47 frozen/thawed, glucose total 21 mM): 124 μIU insulin secreted/ml/10,000 | insulin secretion, control (glucose alone) ([2]; total 1 mM glucose, 10^5 cells/ml): 91 | insulin secretion, control (glucose alone) ([2]; total 2 mM glucose): 108 | insulin secretion, control (glucose alone) ([2]; total 6 mM glucose): 112 | insulin secretion, control (glucose alone) ([2]; total 11 mM glucose): 116 | insulin secretion, control (glucose alone) ([2]; total 16 mM glucose): 128 | insulin secretion, control (glucose alone) ([2]; total 22 mM glucose): 115 | % of insulin positive cells ([3]; 3 mo. culture (8th passage generation)): 88% | # cells positive for insulin (anti-insulin-RITC) ([3]; 3 mo. culture (8th passage generation), 388 cells screened): 343 | % of insulin positive cells ([3]; 8 mo. culture (16th passage generation)): 87% | # cells positive for insulin (anti-insulin-RITC) ([3]; 8 mo. culture (16th passage generation), 195 cells screened): 170 | Insulin positive ([4]; 8th passage generation (3 mo. culture)): 86% | Insulin positive (number of cells) ([4]; 8th passage generation (3 mo. culture), 204 cells analyzed): 175 | Insulin positive ([4]; 16th passage generation (8 mos. culture)): 90% | Insulin positive (number of cells) ([4]; 16th passage generation (8 mos. culture), 187 cells analyzed): 168 | Secreted Insulin ([5]; 2 Medium islets @): 162.2 uIU/ml/hr | Secreted Insulin ([5]; 2 Very small islets @ (<0.5 μm)): 84.5 uIU/ml/hr | Secreted Insulin ([5]; Extra large islet (>250 μm), 3½ hours): 86.7 uIU/ml/hr | Secreted Insulin ([5]; Large islet (˜150 μm)): 149.4 uIU/ml/hr
